Data from patent US12428430B2 (BRISTOL-MYERS SQUIBB COMPANY, priority 2018, dated 2025).

target: hLPA1 (Homo sapiens, UniProt Q92633); assay: LPA1 functional antagonist assay (LPA-induced calcium flux in CHO cells overexpressing human LPA1); assay type: cell-based; set-up: expressed in transfected cells; host or cells: Chinese hamster ovary (CHO) cells; conditions: antagonist mode, inhibition of calcium flux induced by 10 nM LPA, read-out: hLPA1 IC50
Method: The effectiveness of compounds of the present invention as LPA1 inhibitors can be determined in an LPA1 functional antagonist assay as follows:
Chinese hamster ovary cells overexpressing human LPA1 were plated overnight (15,000 cells/well) in poly-D-lysine coated 384-well microplates (Greiner bio-one, Cat #781946) in DMEM/F12 medium (Gibco, Cat #11039). Following overnight culture, cells were loaded with calcium indicator dye (AAT Bioquest Inc, Cat #34601) for 30 minutes at 37° C. The cells were then equilibrated to room temperature for 30 minutes before the assay. Test compounds solubilized in DMSO were transferred to 384 well non-binding surface plates (Corning, Cat #3575) using the Labcyte Echo acoustic dispense and diluted with assay buffer [1×HBSS with calcium/magnesium (Gibco Cat #14025-092), 20 mM HEPES (Gibco Cat #15630-080) and 0.1% fatty acid free BSA (Sigma Cat #A9205)] to a final concentration of 0.5% DMSO. Diluted compounds were added to the cells by FDSS6000 (Hamamatsu) at final concentrations ranging from 0.08 nM to 5 μM. and were then incubated for 20 min at room temperature at which time LPA (Avanti Polar Lipids Cat #857130C) was added at final concentrations of 10 nM to stimulate the cells. The compound IC50 value was defined as the concentration of test compound which inhibited 50% of the calcium flux induced by LPA alone. IC50 values were determined by fitting data to a 4-parameter logistic equation (GraphPad Prism, San Diego Calif.).

Sequence of hLPA1 (Q92633 whole entry): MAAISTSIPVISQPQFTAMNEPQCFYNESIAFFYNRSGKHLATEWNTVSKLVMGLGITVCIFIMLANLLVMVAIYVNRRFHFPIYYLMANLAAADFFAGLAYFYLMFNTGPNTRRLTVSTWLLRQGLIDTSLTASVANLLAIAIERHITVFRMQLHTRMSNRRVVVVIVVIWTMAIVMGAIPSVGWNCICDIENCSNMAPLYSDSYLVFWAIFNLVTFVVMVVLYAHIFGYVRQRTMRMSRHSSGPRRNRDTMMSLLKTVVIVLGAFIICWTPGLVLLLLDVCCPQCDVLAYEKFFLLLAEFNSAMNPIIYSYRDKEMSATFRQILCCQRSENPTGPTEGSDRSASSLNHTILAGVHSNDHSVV

Compound	IC50
2-(4-(4-(4 2-(4-(4-(4-((((cyclobutyl-methyl)carbamoyl)oxy)methyl)-3-methylisoxazol-5-yl)phenyl)-2-oxabicyclo[2.2.2]octan-1-yl)acetic acid [Example 35]	655 nM
2-(4-(4-(4-((((cyclobutylmethyl)(methyl)carbamoyl)oxy)methyl)-3-methylisoxazol-5-yl)phenyl)-2-oxabicyclo[2.2.2]octan-1-yl)acetic acid [Example 34]	158 nM
CC(C1CCC1)N(C)C(=O)OCc1c(-c2ccc(C34CCC(CCC(=O)O)(CC3)OC4)cc2)nnn1C (racemic) [Example 5, (±)-3-(4-(4-(5-((((1-Cyclobutylethyl)(methyl)carbamoyl)oxy)methyl)-1-methyl-1H-1,2,3-triazol-4-yl)phenyl)-2-oxabicyclo[2.2.2]octan-1-yl)propanoic acid]	440 nM
Cc1noc(-c2ccc(C34CCC(CC(=O)O)(CC3)OC4)cc2)c1NC(=O)OC(C)c1ccc(Cl)cc1 (racemic) [Example 14]	117 nM
Cc1noc(-c2ccc(C34CCC(CC(=O)O)(CC3)OC4)cc2)c1NC(=O)OC(C)c1cccc(Cl)c1 (racemic) [Example 15, (±)-2-(4-(4-(4-(((1-(3-chlorophenyl)ethoxy)carbonyl)amino)-3-methyl-isoxazol-5-yl)phenyl)-2-oxabicyclo[2.2.2]octan-1-yl)acetic acid]	379 nM
Cc1noc(-c2ccc(C34CCC(CC(=O)O)(CC3)OC4)c(F)c2)c1NC(=O)OC(C)c1cccc(Cl)c1 (racemic) [Example 19, (±)-2-(4-(4-(4-(((1-(3-chlorophenyl)ethoxy)carbonyl)amino)-3-methyl-isoxazol-5-yl)-2-fluorophenyl)-2-oxabicyclo[2.2.2]octan-1-yl)acetic acid]	692 nM
Cc1noc(-c2ccc(C34CCC(CC(=O)O)(CC3)OC4)cc2F)c1NC(=O)OC(C)c1ccc(Cl)cc1 (racemic) [Example 24, (±)-2-(4-(4-(4-(((1-(4-chlorophenyl)ethoxy)carbonyl)amino)-3-methyl-isoxazol-5-yl)-3-fluorophenyl)-2-oxabicyclo[2.2.2]octan-1-yl)acetic acid]	406 nM
Cc1noc(-c2ccc(C34CCC(CC(=O)O)(CC3)OC4)cc2F)c1NC(=O)OC(C)c1cccc(Cl)c1 (racemic) [Example 25, (±)-2-(4-(4-(4-(((1-(3-chlorophenyl)ethoxy)carbonyl)amino)-3-methyl-isoxazol-5-yl)-3-fluorophenyl)-2-oxabicyclo[2.2.2]octan-1-yl)acetic acid]	345 nM
Cc1cc(C23CCC(CC(=O)O)(CC2)OC3)ccc1-c1onc(C)c1NC(=O)O[C@H](C)c1ccccc1C (racemic) [Example 26, (±)-2-(4-(3-methyl-4-(3-methyl-4-((((R)-1-(o-tolyl)ethoxy)carbonyl)amino)isoxazol-5-yl)phenyl)-2-oxabicyclo[2.2.2]octan-1-yl)acetic acid]	92 nM
CC(OC(=O)Nc1c(-c2ccc(C34CCC(CC(=O)O)(CC3)OC4)c(F)c2)cnn1C)c1ccc(Cl)cc1 (racemic) [Example 29, (±)-2-(4-(4-(5-(((1-(4-chlorophenyl)ethoxy)carbonyl)amino)-1-methyl-1H-pyrazol-4-yl)-2-fluorophenyl)-2-oxabicyclo[2.2.2]octan-1-yl)acetic acid]	1140 nM
CC(C1CC1)N(C)C(=O)OCc1c(-c2ccc(C34CCC(CC(=O)O)(CC3)OC4)cc2)cnn1C (racemic) [Example 36, (rac)-2-(4-(4-(5-((((1-cyclopropyl-ethyl)(methyl)carbamoyl)oxy)methyl)-1-methyl-1-pyrazol-4-yl)phenyl)-2-oxabicyclo[2.2.2]octan-1-yl)acetic acid]	1890 nM
CC(C1CCC1)N(C)C(=O)OCc1c(-c2ccc(C34CCC(CC(=O)O)(CC3)OC4)cc2)cnn1C (racemic) [Example 37, (rac)-2-(4-(4-(5-((((1-cyclobutyl-ethyl)(methyl)carbamoyl)oxy)methyl)-1-methyl-1H-pyrazol-4-yl)phenyl)-2-oxabicyclo[2.2.2]octan-1-yl)acetic acid]	166 nM
Cc1noc(-c2ccc(C34CCC(CC(=O)O)(CC3)OC4)cc2)c1NC(=O)O[C@H](C)c1ccccc1 [Example 1, 2-(4-(4-(3-methyl-4-((((R)-1-phenylethoxy)carbonyl)amino)isoxazol-5-yl)phenyl)-2-oxabicyclo [2.2.2]octan-1-yl)acetic acid]	116 nM
C[C@@H](OC(=O)Nc1c(-c2ccc(C34CCC(CC(=O)O)(CC3)OC4)cc2)cnn1C)c1ccccc1 [Example 2, 2-(4-(4-(1-methyl-5-((((R)-1-phenylethoxy)carbonyl)amino)-1H-pyrazol-4-yl)phenyl)-2-oxabicyclo[2.2.2]octan-1-yl)acetic acid]	88 nM
Cc1noc(-c2ccc(C34CCC(CC(=O)O)(CC3)OC4)cc2)c1COC(=O)N(C)C1CCCC1 [Example 3, 2-(4-(4-(4-(((cyclopentyl(methyl)carbamoyl)oxy)methyl)-3-methylisoxazol-5-yl)phenyl)-2-oxabicyclo[2.2.2]octan-1-yl)acetic acid]	317 nM
CN(C(=O)OCc1c(-c2ccc(C34CCC(CC(=O)O)(CC3)OC4)cc2)cnn1C)C1CCCC1 [Example 4, 2-(4-(4-(5-(((cyclopentyl(methyl)carbamoyl)oxy)methyl)-1-methyl-1H-pyrazol-4-yl)phenyl)-2-oxabicyclo[2.2.2]octan-1-yl)acetic acid]	1610 nM
CN(C(=O)OCc1c(-c2ccc(C34CCC(CC(=O)O)(CC3)OC4)c(F)c2)nnn1C)C1CCCC1 [Example 6, 2-(4-(4-(5-(((Cyclopentyl(methyl)carbamoyl)oxy)methyl)-1-methyl-1H-1,2,3-triazol-4-yl)-2-fluorophenyl)-2-oxabicyclo[2.2.2]octan-1-yl)acetic acid]	363 nM
C[C@@H](OC(=O)Nc1c(-c2ccc(C34CCC(CCC(=O)O)(CC3)OC4)cc2)nnn1C)c1ccccc1 [Example 7, 3-(4-(4-(1-methyl-5-((((R)-1-phenylethoxy)carbonyl)amino)-1H-1,2,3-triazol-4-yl)phenyl)-2-oxabicyclo[2.2.2]octan-1-yl)propanoic acid]	264 nM
C[C@@H](OC(=O)Nc1c(-c2ccc(C34CCC(CCC(=O)O)(CC3)OC4)cc2)nnn1C)c1ccccc1Cl [Example 8, 3-(4-(4-(5-((((R)-1-(2-chlorophenyl)ethoxy)carbonyl)amino)-1-methyl-1H-1,2,3-triazol-4-yl)phenyl)-2-oxabicyclo[2.2.2]octan-1-yl)propanoic acid]	418 nM
C[C@@H](OC(=O)Nc1c(-c2ccc(C34CCC(C(=O)O)(CC3)OC4)cc2)cnn1C)c1ccccc1 [Example 9, (R)-4-(4-(1-methyl-5-(((1-phenylethoxy)carbonyl)amino)-1H-pyrazol-4-yl)phenyl)-2-oxabicyclo[2.2.2]octane-1-carboxylic acid]	278 nM
C[C@@H](OC(=O)Nc1c(-c2ccc(C34CCC(CC(=O)O)(CC3)OC4)cc2)cnn1CC1CC1)c1ccccc1 [Example 10, (R)-2-(4-(4-(1-(cyclopropylmethyl)-5-(((1-phenylethoxy)carbonyl)amino)-1H-pyrazol-4-yl)phenyl)-2-oxabicyclo[2.2.2]octan-1-yl)acetic acid]	422 nM
Cc1noc(-c2ccc(C34CCC(CC(=O)O)(CC3)OC4)cc2)c1NC(=O)O[C@H](C)C1CC1 [Example 11, 2-(4-(4-(4-((((R)-1-cyclopropyl-ethoxy)carbonyl)amino)-3-methylisoxazol-5-yl)phenyl)-2-oxabicyclo[2.2.2]octan-1-yl)acetic acid]	194 nM
Cc1noc(-c2ccc(C34CCC(CC(=O)O)(CC3)OC4)cc2)c1NC(=O)O[C@H](C)c1ccccc1Cl [Example 12, 2-(4-(4-(4-((((R)-1-(2-chlorophenyl)ethoxy)carbonyl)amino)-3-methylisoxazol-5-yl)phenyl)-2-oxabicyclo[2.2.2]octan-1-yl)acetic acid]	72 nM
Cc1ccccc1[C@@H](C)OC(=O)Nc1c(C)noc1-c1ccc(C23CCC(CC(=O)O)(CC2)OC3)cc1 [Example 13, 2-(4-(4-(3-methyl-4-((((R)-1-(o-tolyl)ethoxy)carbonyl)amino)isoxazol-5-yl)phenyl)-2-oxabicyclo[2.2.2]octan-1-yl)acetic acid]	184 nM
Cc1noc(-c2ccc(C34CCC(CC(=O)O)(CC3)OC4)c(F)c2)c1NC(=O)O[C@H](C)C1CC1 [Example 16, 2-(4-(4-(4-((((R)-1-cyclopropylethoxy)carbonyl)amino)-3-methylisoxazol-5-yl)-2-fluorophenyl)-2-oxabicyclo[2.2.2]octan-1-yl)acetic acid]	407 nM
Cc1ccccc1[C@@H](C)OC(=O)Nc1c(C)noc1-c1ccc(C23CCC(CC(=O)O)(CC2)OC3)c(F)c1 [Example 17, 2-(4-(2-fluoro-4-(3-methyl-4-((((R)-1-(o-tolyl)ethoxy)carbonyl)amino)isoxazol-5-yl)phenyl)-2-oxabicyclo[2.2.2]octan-1-yl)acetic acid]	119 nM
